Laboratory results: patent US20250250227A1, “AMINO LIPID COMPOUND, PREPARATION METHOD THEREFOR, COMPOSITION THEREOF AND USE THEREOF” (SHENZHEN SHENXIN BIOTECHNOLOGY CO., LTD., priority 2022, published 2025)

Columns and labels:
[1] = Preparation and characterisation of mRNA-encapsulating lipid nanoparticle (encapsulation efficiency, particle size); assay type: physicochemical; settings: LNP encapsulating Fluc mRNA; Lipid:DSPC:CHO-HP:M-DMG-2000 48:10:40.5:1.5
Outline: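 Fluc mRNA in sodium acetate buffer mixed with ethanolic amino lipid:DSPC:CHO-HP:M-DMG-2000 (48:10:40.5:1.5 molar) by microfluidics, mRNA:lipid mass ratio 1:10, then dialysed 2 h against Tris-8% sucrose and 0.22 μm filtered. Final mRNA 0.2 g/L; particle size and encapsulation efficiency measured.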

Female BALB/c mice [2] = test: Performance evaluation of in vivo delivery of Fluc mRNA lipid nanoparticle (IVIS, body and organs); settings: Fluc mRNA LNP; for Liver (fluorescence expression intensity) / Spleen (fluorescence expression intensity): 75 μL IV; for Liver (fluorescence expression intensity) / Spleen (fluorescence expression intensity) / Total flux (fluorescence expression intensity) / (Spleen/Total Flux) * 100%: 6 hours after injection; for Liver (fluorescence expression intensity) / Spleen (fluorescence expression intensity) / Total flux (fluorescence expression intensity): IVIS; for Total flux (fluorescence expression intensity): 75 μL tail vein injection (IV); for (Spleen/Total Flux) * 100% / Multiple of spleen delivery/total delivery to amino lipid compound 118: IV; for Multiple of spleen delivery/total delivery to amino lipid compound 118: relative to amino lipid compound 118
Outline: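 Female BALB/c mice, 6-8 weeks, received 75 μL Fluc mRNA-LNP by tail-vein injection, 3 mice per formulation. At 6 h, 200 μL D-luciferin was injected, mice were anesthetized with isoflurane, and IVIS bioluminescence was imaged in body and organs.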

Female BALB/c mice [3] = test: IFN-γ Elispot cellular immunity test, spleen lymphocytes of mice immunized with IN002.5.1 mRNA LNP; assay type: in vivo; settings: 50 μL IM, spleen on 7th day after immunization, FIG. 2-4

Row | Structure (SMILES) | Encapsulation efficiency [1] [%] | Liver (fluorescence expression intensity) (Female BALB/c mice [2]) | Spleen (fluorescence expression intensity) (Female BALB/c mice [2]) | Total flux (fluorescence expression intensity) (Female BALB/c mice [2]) | (Spleen/Total Flux) * 100% (Female BALB/c mice [2]) [%] | Multiple of spleen delivery/total delivery to amino lipid compound 118 (Female BALB/c mice [2]) | Cellular immunity effect (IFN-γ Elispot) compared to ALC0315 (Female BALB/c mice [3])
1 | CCCCCCC(CCCCCC)OC(=O)CCCCCCCCC(CCCCCCCCC(=O)OC(CCCCCC)CCCCCC)OC(=O)N(CCCN(C)C)CCC(=O)OCCCC [Compound 264] | 94.12 | 1.61E+08 | 8.05E+06 | 4.95E+08 | 1.63 | 4.78 | better cellular immunity effect
2 | CCCCCCOC(=O)CN(CCCN(C)C)C(=O)OC(CCCCCCCCC(=O)OC(CCCCCC)CCCCCC)CCCCCCCCC(=O)OC(CCCCCC)CCCCCC [Compound 272] | 93.96 | 7.42E+07 | 3.03E+06 | 4.04E+08 | 0.75 | 2.21 | better cellular immunity effect
3 | CCCCCCC(CCCCCC)OC(=O)CCCCCCCCC(CCCCCCCCC(=O)OC(CCCCCC)CCCCCC)OC(=O)N(CCCN(C)C)CC(=O)OCCCC [Compound 270] | 93.46 | 1.34E+08 | 7.36E+06 | 4.40E+08 | 1.67 | 4.92 | better cellular immunity effect
4 | CCCCCCCOC(=O)CN(CCCN(C)C)C(=O)OC(CCCCCCCCC(=O)OC(CCCCCC)CCCCCC)CCCCCCCCC(=O)OC(CCCCCC)CCCCCC [Compound 273] | 87.42 | 4.33E+07 | 2.37E+06 | 1.78E+08 | 1.33 | 3.92 | better cellular immunity effect
5 | CCCCCCCOC(=O)CCN(CCCN(C)C)C(=O)OC(CCCCCCCCC(=O)OC(CCCCCC)CCCCCC)CCCCCCCCC(=O)OC(CCCCCC)CCCCCC [Compound 267] | 93.13 | 9.91E+07 | 1.54E+06 | 4.01E+08 | 0.38 | 1.13 | better cellular immunity effect
